Data: patent US20250066286A1, “COMPOSITIONS OF (Z)-ENDOXIFEN AND METHODS OF ENRICHMENT THEREOF” (Atossa Therapeutics, Inc., priority 2022, published 2025)

Legend:
Type in all cases: physicochemical
[1] = Precipitation of (Z)-endoxifen by cooling, gradient precipitation (XRPD); conditions: GRAD
Protocol: Z)-endoxifen was precipitated by cooling various single and multi- solvent systems. […] The crystallizations utilized cooling rates of 0.5° C./minute or 0.2° C./minute. The samples were then incubated 25° C. with stirring for approximately 15 hours. Some solutions generated precipitate, which was recovered by filtration with a nylon filter (0.22 μm) during centrifugation at 4000 rpm for 3 minutes.
The resulting precipitate was recovered by filtration with a nylon filter (0.22 μm) during centrifugation at 4000 rpm for 3 minutes.
All precipitates were collected for XRPD analysis.

[2] = Slurries of (Z)-endoxifen in solvent mixtures (XRPD); conditions: for Output Crystallinity [high/low/SC/oriented]: 50° C., 1 d
Protocol: Slurry experiments were performed with solvents with 50° C. (Z)-endoxifen was suspended in 500 μl of the solvent mixture to achieve the concentrations of 40 mg/ml or 100 mg/ml. The resultant solutions were stored at 50° C. for one day. For solvent mixtures which included acetone, the slurry was instead stored at 40° C. The suspensions were then recovered and filtered with a nylon filter (0.22 μm) during centrifugation at 4000 rpm for 3 minutes, and the collected solid (Z)-endoxifen was analyzed by XRPD as shown in FIG. 85-FIG. 91 and FIG. 1-FIG. 5.

[3] = Single solvent slurries of (Z)-endoxifen (XRPD of recovered solid)
Protocol: Further solubility analyses were then performed for solvents which formed suspensions at 50° C. […] The suspensions were recovered and filtered with a nylon filter (0.22 μm) during centrifugation at 4000 rpm for 3 minutes. The solid (Z)-endoxifen collected through filtration was analyzed by XRPD. (Z)-endoxifen remaining in the filtrate was precipitated by addition of antisolvent and also subjected to XRPD analysis.

[4] = (Z)-Endoxifen recovery by solvent evaporation (XRPD)
Protocol: For the single-solvent evaporations, 10 mg (Z)-endoxifen was dissolved in 1 ml of various solvents in which (Z)-endoxifen has >1000 mg/ml solubility (“very soluble”), 100-1000 mg/ml solubility (“freely soluble”), 33-100 mg/ml solubility (“soluble”), and 10-33 mg/ml solubility (“sparingly soluble”). The solutions were stirred for approximately 60 minutes, then left to evaporate. Following (Z)-endoxifen dissolution to a concentration of 10 mg/ml, all solvents generated clear solutions in which the (Z)-endoxifen completely dissolved. The solutions were evaporated at either room temperature (17-25° C.) or elevated temperature (40-60° C.). All evaporations were performed at 1 atmosphere pressure. The solids obtained from the evaporations were analyzed by XRPD.
For the multi-solvent evaporations, 40 mg (Z)-endoxifen was dissolved in either ethanol/water or THF/acetone mixtures. For the water/ethanol evaporations, 20 ml of 70/30 ethanol/water (v/v) mixtures (achieving concentrations of 2 mg/ml (Z)-endoxifen). The white suspensions were incubated for 3 days at 50° C., yielding clear solutions which were then left to evaporate at elevated temperatures. These analyses were repeated over 4 replicates. For the THF/acetone evaporations, 60 mg (Z)-endoxifen were dissolved in 1.5 ml of a multi-solvent system containing tetrahydrofuran (THF) and acetone in a 40/60 (v/v) mixture. The resultant clear solution was filtered and left to evaporate at room temperature.

[5] = Competitive slurries of (Z)-endoxifen polymorphs (XRPD); conditions: slurries of Forms I, IV and VII in various solvents, 3 days at room temperature or 24 hours at high temperature
Protocol: This example covers conversions of (Z)-endoxifen polymorphs in solvent slurries. Slurries of Forms I and VII were generated with Forms I, IV, and VII in various solvents, and incubated for either 3 days at room temperature or for 24 hours at high temperature. Following these incubations, polymorphs were collected from the slurries and characterized by XRPD.

[6] = 2-propanol 0.5 mL, 20 mg/mL, 75 to 25 °C, ramp −0.2
[7] = acetone 0.5 mL, 20 mg/mL, 25 to −20 °C, ramp not controlled, 3 d
[8] = acetonitrile 0.5 mL, 20 mg/mL, 75 to 25 °C, ramp −0.2
[9] = butyl acetate 0.5 mL, 100 mg/mL, 100 to 25 °C, ramp −0.2
[10] = ethanol 0.5 mL, 20 mg/mL, 75 to 25 °C, ramp −0.2
[11] = SLHT-1D-ACN(100 mg/ml) - Form I reference, FIG. 76: acetonitrile, 100 mg/mL, 50° C., 1 d
[12] = SLHT-1D-ACT(100 mg/ml), FIG. 77: acetone, 100 mg/mL, 40° C., 1 d
[13] = SLRT-14D-BME, FIG. 74: butyl methyl ether, 10 mg/mL, RT, 14 d

Output Crystallinity [high/low/SC/oriented] [1, 6]: low
Output Main phase [phase] [1, 6]: Form I
Output Main phase [phase] ([1]; 2-propanol 0.5 mL, 100 mg/mL, 75 to 25 °C, ramp −0.2): Form I
Output Crystallinity [high/low/SC/oriented] [1, 7]: low
Output Main phase [phase] [1, 7]: Form I
Output Crystallinity [high/low/SC/oriented] [1, 8]: low
Output Main phase [phase] [1, 8]: Form V
Output Crystallinity [high/low/SC/oriented] [1, 9]: low
Output Main phase [phase] [1, 9]: Form I
Output Crystallinity [high/low/SC/oriented] [1, 10]: low
Output Main phase [phase] [1, 10]: Form I
Output Main phase [phase] ([1]; ethanol 0.5 mL, 100 mg/mL, 75 to 25 °C, ramp −0.2): Form I
Output Main phase [phase] ([1]; ethyl acetate 0.5 mL, 100 mg/mL, 75 to 25 °C, ramp −0.2): Form I
Output Main phase [phase] ([1]; methyl isobutyl ketone 0.5 mL, 100 mg/mL, 25 to −20 °C, ramp not controlled, 1 d): Form X
Output Crystallinity [high/low/SC/oriented] ([2]; SLHT-1D-H2O/THF(40 mg/ml), FIG. 3: water/tetrahydrofuran 95/5, 40 mg/mL): low
Output Crystallinity [high/low/SC/oriented] ([2]; SLHT-1D-HEP/TOL(100 mg/ml), FIG. 89: heptane/toluene 50/50, 100 mg/mL): low
Polymorphic form recovered (XRPD) ([2]; all solvent mixture slurries, 40 or 100 mg/ml, 50° C. (40° C. with acetone), one day): Form I with varying degrees of purity
Output Main phase [phase] ([3]; SLHT-1D-ACN(50 mg/ml), FIG. 80: acetonitrile, 50 mg/mL, 50° C., 1 d): Form I
Output Main phase [phase] ([3]; SLHT-1D-ACN(50 mg/ml)-vial attached, FIG. 92: acetonitrile, 50 mg/mL, 50° C., 1 d): Form I
Output Crystallinity [high/low/SC/oriented] [3, 11]: high
Output Main phase [phase] [3, 11]: Form I
Output Main phase [phase] ([3]; SLHT-1D-ACT(50 mg/ml), FIG. 80: acetone, 50 mg/mL, 40° C., 1 d): Form I
Output Crystallinity [high/low/SC/oriented] [3, 12]: high
Output Main phase [phase] [3, 12]: Form I
Output Main phase [phase] ([3]; SLHT-1D-BME, FIG. 75: butyl methyl ether, 10 mg/mL, 40° C., 1 d): Form I
Output Main phase [phase] ([3]; SLHT-1D-H2O, FIG. 75: water, 10 mg/mL, 50° C., 1 d): Form I
Output Main phase [phase] ([3]; SLHT-1D-HEP, FIG. 75: heptane, 10 mg/mL, 50° C., 1 d): Form I
Output Main phase [phase] ([3]; SLRT-1D-DMF(300 mg/ml), FIG. 81: dimethylformamide, 300 mg/mL, RT, 1 d): Form I
Output Main phase [phase] ([3]; SLRT-1D-ETA(20 mg/ml), FIG. 81: ethyl acetate, 20 mg/mL, RT, 1 d): Form I
Output Main phase [phase] ([3]; SLRT-2D-THF(170 mg/ml), FIG. 81: tetrahydrofuran, 169.7 mg/mL, RT, 2 d): Form I
Output Main phase [phase] ([3]; SLRT-3D-ACT(40 mg/ml), FIG. 78: acetone, 40 mg/mL, RT, 3 d): Form I
Output Main phase [phase] ([3]; SLRT-3D-BME, FIG. 73: butyl methyl ether, 10 mg/mL, RT, 3 d): Form I
Output Main phase [phase] ([3]; SLRT-3D-ETH(40 mg/ml), FIG. 78: ethanol, 40 mg/mL, RT, 3 d): Form I
Output Main phase [phase] ([3]; SLRT-3D-H2O, FIG. 73: water, 10 mg/mL, RT, 3 d): Form I
Output Main phase [phase] ([3]; SLRT-3D-HEP, FIG. 73: heptane, 10 mg/mL, RT, 3 d): Form I
Output Main phase [phase] ([3]; SLRT-6HRS-ACT(40 mg/ml), FIG. 81: acetone, 40 mg/mL, RT, 6 h): Form I
Output Main phase [phase] ([3]; SLRT-14D-2PR(100 mg/ml), FIG. 83: 2-propanol, 100 mg/mL, RT, 14 d): Form I
Output Main phase [phase] ([3]; SLRT-14D-ACN(100 mg/ml), FIG. 83: acetonitrile, 100 mg/mL, RT, 14 d): Form I
Output Main phase [phase] ([3]; SLRT-14D-ACT(40 mg/ml), FIG. 79: acetone, 40 mg/mL, RT, 14 d): Form I
Output Main phase [phase] ([3]; SLRT-14D-ACT(100 mg/ml), FIG. 83: acetone, 100 mg/mL, RT, 14 d): Form I
Output Main phase [phase] ([3]; SLRT-14D-BAC(100 mg/ml), FIG. 82: butyl acetate, 100 mg/mL, RT, 14 d): Form I
Output Crystallinity [high/low/SC/oriented] [3, 13]: low
Output Main phase [phase] [3, 13]: Form I
Output Main phase [phase] ([3]; SLRT-14D-ETA(100 mg/ml), FIG. 82: ethyl acetate, 100 mg/mL, RT, 14 d): Form I
Output Main phase [phase] ([3]; SLRT-14D-ETH(40 mg/ml), FIG. 79: ethanol, 40 mg/mL, RT, 14 d): Form I
Output Main phase [phase] ([3]; SLRT-14D-ETH(100 mg/ml), FIG. 82: ethanol, 100 mg/mL, RT, 14 d): Form I
Output Main phase [phase] ([3]; SLRT-14D-H2O, FIG. 74: water, 10 mg/mL, RT, 14 d): Form I
Output Main phase [phase] ([3]; SLRT-14D-HEP, FIG. 74: heptane, 10 mg/mL, RT, 14 d): Form I
Output Main phase [phase] ([3]; SLRT-14D-MET(50 mg/ml), FIG. 84: methanol, 50 mg/mL, RT, 14 d): Form I
Output Main phase [phase] ([3]; SLRT-14D-MIBK(100 mg/ml), FIG. 82: methyl isobutyl ketone, 100 mg/mL, RT, 14 d): Form I
Output Main phase [phase] ([3]; SLRT-14D-TOL(100 mg/ml), FIG. 83: toluene, 100 mg/mL, RT, 14 d): Form I
Polymorphic form recovered (XRPD) ([3]; all single solvent slurries): Form I
Output Main phase [phase] ([4]; EVHT: butyl acetate, 10 mg/mL, evaporation at 60° C.): Form I
Output Main phase [phase] ([4]; EVHT: dimethylformamide, 10 mg/mL, evaporation at 60° C.): amorphous
Output Main phase [phase] ([4]; EVHT: ethanol/water 70/30 v/v, 2 mg/mL, evaporation at 60° C. (4 replicates)): amorphous
Output Main phase [phase] ([4]; EVHT: methyl isobutyl ketone, 10 mg/mL, evaporation at 60° C.): amorphous
Output Main phase [phase] ([4]; EVHT: toluene, 10 mg/mL, evaporation at 60° C.): amorphous
Output Main phase [phase] ([4]; EVRT: 2-propanol, 10 mg/mL, evaporation at RT): Form IV
Output Main phase [phase] ([4]; EVRT: acetone, 10 mg/mL, evaporation at RT): Form I
Output Main phase [phase] ([4]; EVRT: acetonitrile, 10 mg/mL, evaporation at RT): Form I
Output Main phase [phase] ([4]; EVRT: ethyl acetate, 10 mg/mL, evaporation at RT): Form I
Output Main phase [phase] ([4]; EVRT: methanol, 10 mg/mL, evaporation at RT): Form I
Output Main phase [phase] ([4]; EVRT: tetrahydrofuran/acetone 40/60 v/v, 40 mg/mL, evaporation at RT): Form I
Compound: CC/C(=C(\c1ccc(O)cc1)c1ccc(OCCNC)cc1)c1ccccc1 [(Z)-endoxifen, (Z)-4-(1-(4-(2-(methylamino)ethoxy)phenyl)-2-phenylbut-1-enyl)phenol]
Polymorphic form recovered (XRPD) [5]: majority of slurries yielded high purity Form I, some of the slurries yielded Form I with traces of Form IV or Form VII, and six slurries yielded primarily Form IV
